Where a name gives a salt, the structure may show the parent alone. Read-outs that look alike come from different tables or passages of the source.
Assays:
[1] = system: late components of human complement (C3-C9); test: Test, Code 035 (C3-C9 inhibitor); format: biochemical; conditions: activity in wells of a serial two-fold dilution assay; higher well number indicates higher activity
Excerpt: (§1) This test measures the ability of activated human C1 to destroy fluid phase human C2 in the presence of C4 and appropriate dilutions of the test compound. An active inhibitor protects C2 from C1 and C4; (ii) Test, Code 035 (C3-C9 inhibitor). This test determines the ability of the late components of human complement (C3-C9) to lyse EAC 142 in the presence of appropriate dilutions of the test compound. An active inhibitor protects EAC 142 from lysis by human C3-C9; (iii) Test, Code 036 (C-Shunt inhibitor). In this test human erythrocytes rendered fragile are lysed in autologous serum via the shunt pathway activated by cobra venom factor in the presence of appropriate dilutions of the test compound. Inhibition of the shunt pathway results in failure of lysis; (iv) Forssman Vasculitis Test - Here, the well known complement dependent lesion, Forssman vasculitis, is produced in guinea pigs by intradermal injection of rabbit anti-Forssman antiserum. […]

[2] = system: shunt pathway activated by cobra venom factor; test: Test, Code 036 (C-Shunt inhibitor); format: cell-based, human; conditions: activity in wells of a serial two-fold dilution assay; higher well number indicates higher activity
Excerpt: as §1

activated human C1 = molecular target: T1, activated human C1 (Homo sapiens, UniProt P09871); test: Test, Code 026 (C1 inhibitor); format: biochemical; conditions: activity in wells of a serial two-fold dilution assay; higher well number indicates higher activity
T1 sequence (P09871 438-688 limits assumed): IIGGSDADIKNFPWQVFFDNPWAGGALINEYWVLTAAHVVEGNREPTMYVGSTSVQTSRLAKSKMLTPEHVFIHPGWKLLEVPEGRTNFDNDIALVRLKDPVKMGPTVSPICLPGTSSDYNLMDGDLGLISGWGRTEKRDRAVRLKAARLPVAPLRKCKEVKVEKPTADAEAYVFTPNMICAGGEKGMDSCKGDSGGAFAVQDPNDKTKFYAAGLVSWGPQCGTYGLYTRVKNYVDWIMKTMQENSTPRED
T1 sequence (P09871 16-437 limits assumed): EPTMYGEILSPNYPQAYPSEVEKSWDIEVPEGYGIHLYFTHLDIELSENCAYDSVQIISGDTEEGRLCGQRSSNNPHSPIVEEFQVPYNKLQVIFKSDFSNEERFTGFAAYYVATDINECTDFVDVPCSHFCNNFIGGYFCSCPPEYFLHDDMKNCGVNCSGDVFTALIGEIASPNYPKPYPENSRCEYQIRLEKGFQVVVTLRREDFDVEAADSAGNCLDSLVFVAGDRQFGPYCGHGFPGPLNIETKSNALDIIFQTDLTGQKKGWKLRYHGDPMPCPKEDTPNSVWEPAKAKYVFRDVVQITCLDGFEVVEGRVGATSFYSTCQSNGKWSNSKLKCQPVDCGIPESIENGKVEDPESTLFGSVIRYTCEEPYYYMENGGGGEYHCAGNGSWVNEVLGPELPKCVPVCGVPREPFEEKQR
Excerpt: as §1

[3] = system: whole complement in serum; test: Complement Level Reduction Test (in vivo, capillary tube assay of serum); conditions: Cavia porcellus, ip, guinea pig, 200 mg/kg i.p., read-out: In Vivo Activity (Guinea Pig) % Inhibition Intraperitoneal

Row | Structure (SMILES) | C-Late 0.35* Wells [1] | Shunt Inhibition 0.36* Wells [2] | Cl 0.26* Wells (activated human C1) | inhibition at 200 mg/kg ([3]; 0.5 h, 30 minutes) [%] | inhibition at 200 mg/kg ([3]; 1 h, 60 minutes) [%] | inhibition at 200 mg/kg ([3]; 2 h, 120 minutes) [%]
1 | O=S(=O)(O)c1ccc(NS(=O)(=O)c2ccc3c(S(=O)(=O)Nc4ccc(S(=O)(=O)O)cc4)cc(S(=O)(=O)Nc4ccc(S(=O)(=O)O)cc4)cc3c2)cc1 [4,4',4"-[1,3,6-Naphthalenetris(sulfonylimino)]trisbenzenesulfonic acid trisodium salt] | N | N | +4 Wells |  |  | 
2 | O=S(=O)(O)c1cc(NS(=O)(=O)c2ccc3c(S(=O)(=O)Nc4cc(S(=O)(=O)O)cc(S(=O)(=O)O)c4)cc(S(=O)(=O)Nc4cc(S(=O)(=O)O)cc(S(=O)(=O)O)c4)cc3c2)cc(S(=O)(=O)O)c1 [5,5',5"-[1,3,6-Naphthalenetris(sulfonylimino)]tris-1,3-benzenedisulfonic acid hexasodium salt] | N |  |  | -85 | -86 | -86

From patent US4117003A, “Substituted aromatic naphthalene sulfonamides” (American Cyanamid Company, priority 1977, dated 1978)
